Test [1] concerns 8 cancer cell lines. In words: Classification of drugs by Apotracker Red (apoptosis) and CellTrace Violet (proliferation) staining. In kind it is cell-based. The note with it: 24 h treatment; for Drug group by Apotracker Red (apoptosis) and CV (proliferation) staining: 8 cell lines, single-dose screen; for Effect on cell proliferation (CellTrace Violet): CellTrace Violet 1 µM, Figure S8. The procedure: To corroborate the versatility of Apotracker Red, we built a screening platform including a total of 8 cancer cell lines of variable origin and pathogenesis: breast (MCF7, MDA‐MB231 and MMTV‐PyMT (mouse mammary tumour virus‐polyoma middle tumour‐antigen)[23]), lung (A549), prostate (PC3 and LnCap), blood cells (Jurkat) and colon (HT29). All cell lines were cultured under standard conditions and seeded with the fluorescent proliferation marker CellTrace^TM Violet (CV) in 96‐well plates (10–20×10^3 cells/well) for high‐throughput flow cytometry. After drug treatment (i.e., drug addition plus 24 h incubation), Apotracker Red was incubated for 10 min and fluorescence readings were directly acquired without any additional processing steps (Figure 3 a). […] Using this platform, we tested a collection of FDA‐approved drugs in all cancer cell lines and compared their ability to induce apoptosis using Apotracker Red as the reporter. Specifically, we included DNA alkylation agents (e.g., cyclophosphamide, cisplatin, 5‐fluorouracil, gemcitabine, temozolomide), proteasomal and mitotic inhibitors (e.g., bortezomib, docetaxel, paclitaxel) and antagonists of specific proteins (e.g., dexamethasone, tamoxifen; Figure 3 b).
(§1) First, all drugs were tested in the 8 different cell lines to determine the percentages of Apotracker Red‐stained apoptotic cells compared to no treatment (Figure 3 c; Figure S8). […] All 5 drugs were tested at multiple concentrations (from 1 to 100 μM) and with incubation times up to 48 h to examine whether drugs could block cell proliferation at late stages (Figures S9–S13).
Figure S8. Heatmap of relative inhibition of cell proliferation (as indicated by staining of CellTraceTM Violet) after treatment of cancer cell lines with different drugs. Data presented as an average of 3 independent experiments. Cells were stained on day 0 with CellTraceTM Violet (1 µM) and mean fluorescence intensities were determined on the 5L LSR after 24 h of treatment with the different drugs.
(1 picture or pasted object on this page, not shown here) […]
(§2) Cell culture. MCF-7, A549, LnCap, MDA-MB-231, Jurkat T cells and PC3 cells were obtained from American Type Culture Collection (ATCC). HT29 cells were purchased from Merck (S i g m a Aldrich, UK). Mouse Mammary Tumour Virus –Polyoma Middle T antigen (MMTV -PyMT) cells were provided by the lab of Mikala Egeblad (CSHL, US). MMTV-PyMT, MCF-7, LnCap, MDA-MB-231 and Jurkat T cells were cultured in Roswell Park Memorial Institute (RPMI) 1640 Medium supplemented with 10% fetal bovine serum (FBS) , 100 U mL-1 penicillin and 0.1 mg mL-1 streptomycin. A549 and PC3 cells were cultured in Dublecco’s modified Eagle’s medium (DMEM) supplemented with 10% fetal bovine serum (FBS), 100 U mL-1 penicillin and 0.1 mg […]
(§3) Flow cytometry drug screen.

For test [2], the system named is breast cancer cells (MMTV-PyMT, MDA-MB231, MCF7). Put plainly: Dose-dependency study with Apotracker Red and CellTrace Violet. In kind it is cell-based, mouse and human. The note with it: 1 to 100 µM, 48 h, Apotracker Red 150 nM; 3 independent experiments. The procedure:
as §1, with “S8). […] From this screen, we decided to select 5 drugs with potent pro‐apoptotic response in breast cancer, the most diagnosed cancer worldwide.[25] […] From group 2, we selected cyclophosphamide, tamoxifen, and 5‐fluorouracil as pro‐apoptotic molecules.” for “S8).”
Figure 4 Apotracker Red detects dose‐dependent chemotherapeutic‐induced apoptosis in mouse and human breast cancer cell lines. Cells were plated with 1 μM CV, treated with increasing concentrations (0, 1, 3, 10, 30 and 100 μM) of selected drugs for 48 h, and stained with Apotracker Red (150 nM) before data acquisition. Drugs: tamoxifen (beige), cisplatin (black), 5‐fluorouracil (green), gemcitabine (pink) and cyclophosphamide (red). Data presented as mean±SEM of 3 independent experiments.
Figure S9. Flow cytometry analysis of cisplatin in different breast cancer cell lines.
Representative flow cytometric plots (from three independent experiments) of MMTV-PyMT cells (a), MDA-MB231 cells (b) and MCF7 cells (c) after treatment with increasing concentrations of cisplatin for 48 h. Cells were stained on day 0 with CellTraceTM Violet (1 µ M) and with Apotracker Red (150 nM) before data acquisition.
(1 picture or pasted object on this page, not shown here)
Edinburgh. Human peripheral blood neutrophils were isolated as previously described.[3] […]
were centrifuged (300 g, 5 min, r.t.), washed once with PBS before addition of 0.05% Trypsin, 0.02% ethylenediaminetetraacetic acid (EDTA) in Hank’s balanced salt solution (HBSS) and incubation at 37°C for 5 min. […] Histograms and mean fluorescence intensities of […]

The subject of test [3] is MDA-MB-231 cells. In words: Dose-dependency study with Apotracker Red. The test is classed as cell-based, human. To be noted: 1 to 100 µM, 48 h, Apotracker Red 150 nM. The procedure: as §1
Edinburgh. Human peripheral blood neutrophils were isolated as previously described.[3] Briefly, whole blood was drawn into tubes containing anti -coagulant 3.6% sodium citrate (final concentration: 0.4% (w/v)) and centrifuged at 350 g for 20 min at r.t. with lowest acceleration and no brake. Platelet-rich plasma was rem oved, and leukocytes separated from erythrocytes by 0.6% dextran sedimentation in saline for 30 min at r.t. The upper layer was further fractionated using an isotonic discontinuous Percoll density gradient. Neutrophils were harvested from the 63% and 72.9% interface and cultured in Iscove’s Modified Dulbecco’s Medium (IMDM, Gibco) in 5% h um an A B se rum fo r 1 8 h at 37°C, 5% CO2 to in du ce spontaneous […]
as §2, §3

Test [4] has as its system apoptotic cells (primary human neutrophils, Jurkat T cells). In words: Divalent cation-independent staining of apoptotic cells. The test is classed as cell-based. The note with it: 2.5 mM EDTA; Apotracker Red 150 nM, Annexin V-AF647 25 nM.

For `Cn1nnc2c(C(N)=O)ncn2c1=O` [temozolomide], the “Drug group by Apotracker Red (apoptosis) and CV (proliferation) staining” value (from here on “Drug group by Apotracker Red”) in test [1] was “inhibited cell proliferation but showed little or no induction of apoptosis”.
As for `CC(C)C[C@H](NC(=O)[C@H](Cc1ccccc1)NC(=O)c1cnccn1)B(O)O` [bortezomib], in test [1], the “Drug group by Apotracker Red” value is “induced apoptosis with little reduction of cell proliferation”; the “Effect on cell proliferation (CellTrace Violet)” value is recorded as “very minor effects on cell proliferation”.
The matching figures for `CC(=O)O[C@H]1C(=O)[C@@]2(C)[C@H]([C@H](OC(=O)c3ccccc3)[C@]3(O)C[C@H](OC(=O)[C@H](O)[C@@H](NC(=O)c4ccccc4)c4ccccc4)C(C)=C1C3(C)C)[C@]1(OC(C)=O)CO[C@@H]1C[C@@H]2O` [paclitaxel]: “induced apoptosis with little reduction of cell proliferation” and “very minor effects on cell proliferation”.
`C[C@@H]1C[C@H]2[C@@H]3CCC4=CC(=O)C=C[C@]4(C)[C@@]3(F)[C@@H](O)C[C@]2(C)[C@@]1(O)C(=O)CO` [dexamethasone]: the “Drug group by Apotracker Red” value in test [1] is “had no impact on proliferation or apoptosis”.
In the case of `CC(=O)O[C@@]12CO[C@@H]1C[C@H](O)[C@@]1(C)C(=O)[C@H](O)C3=C(C)[C@@H](OC(=O)[C@H](O)[C@@H](NC(=O)OC(C)(C)C)c4ccccc4)C[C@@](O)([C@@H](OC(=O)c4ccccc4)[C@H]21)C3(C)C` [docetaxel], in test [1], the “Drug group by Apotracker Red” value is “inhibited cell proliferation but showed little or no induction of apoptosis”.
Turning to `CC/C(=C(\c1ccccc1)c1ccc(OCCN(C)C)cc1)c1ccccc1` [tamoxifen], in test [1], the “Drug group by Apotracker Red” value is listed as “induced apoptosis with little reduction of cell proliferation”. Also, the “Percentages of Apotracker Red staining, dose-dependency study” value in test [2] is on record as “highest percentages of Apotracker Red staining across all breast cancer cells”.
For the molecule `O=P1(N(CCCl)CCCl)NCCCO1` (stereo not drawn) [cyclophosphamide], in test [3], the “Apotracker Red staining in MDA-MB-231 cells, dose-dependency study” value is “weaker Apotracker Red‐staining”.
On to `Nc1ccn([C@@H]2O[C@H](CO)[C@@H](O)C2(F)F)c(=O)n1` [gemcitabine], for which the “Drug group by Apotracker Red” value in test [1] is “induced apoptosis and decreased cell proliferation”. Besides, the “Apotracker Red staining in MDA-MB-231 cells, dose-dependency study” value in test [3] is given as “weaker Apotracker Red‐staining”.
On to `O=c1[nH]cc(F)c(=O)[nH]1` [5-fluorouracil], for which the “Drug group by Apotracker Red” value in test [1] is recorded as “induced apoptosis with little reduction of cell proliferation”. Further, the “Apotracker Red staining in MDA-MB-231 cells, dose-dependency study” value in test [3] was “weaker Apotracker Red‐staining”.

B1: Annexin V‐AF647: a 36 kDa protein marker of PtdSer in the presence of Ca2+ ions (protein, UniProt P08758 2-320, looked up)
Annexin A5: AQVLRGTVTDFPGFDERADAETLRKAMKGLGTDEESILTLLTSRSNAQRQEISAAFKTLFGRDLLDDLKSELTGKFEKLIVALMKPSRLYDAYELKHALKGAGTNEKVLTEIIASRTPEELRAIKQVYEEEYGSSLEDDVVGDTSGYYQRMLVVLLQANRDPDAGIDEAQVEQDAQALFQAGELKWGTDEEKFITIFGTRSVSHLRKVFDKYMTISGFQIEETIDRETSGNLEQLLLAVVKSIRSIPAYLAETLYYAMKGAGTDDHTLIRVMVSRSEIDLFNIRKEFRKNFATSLYSMIKGDTSGDYKKALLLLCGEDD
modifications: Alexa Fluor 647 label
notes: a 36 kDa protein marker of PtdSer in the presence of Ca2+ ions
For the molecule B1, in test [4], the “Staining of apoptotic cells after chelation of divalent cations” value is given as “failed to bind”.

The record behind these values is publication PMC8991960, “A Bivalent Activatable Fluorescent Probe for Screening and Intravital Imaging of Chemotherapy‐Induced Cancer Cell Death” (Angewandte Chemie (International Ed. in English), 2021).
